Experimental data: patent US20230312587A1, “PTERIDINONE COMPOUNDS AND USES THEREOF” (Vertex Pharmaceutical Incorporated, priority 2018, published 2023)
Where two headings read alike, the source gives them in different places.

Key:
[1] = tested on: β-catenin-TCF-mediated reporter transcription activity in Colo 205 cells; test: Colo 205 reporter assay (TCF/LEF luciferase); format: cell-based; conditions: Colo 205 TCF/LEF luciferase reporter, five hours after addition of compound, read-out: TCF reporter Colo205 IC50
Method in brief: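 Luciferase signal from a TCF/LEF-driven reporter, stably integrated in Colo 205 colon cancer cells, was measured 5 h after compound addition.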

[2] = tested on: Colo205-TCF/LEF-Luciferase (Luc) tumor; test: In vivo inhibition of TCF/LEF reporter activity in Colo-205 tumors; design: concentration or dose not given beside the values; conditions: TCF/LEF luciferase reporter in Colo-205 tumors, nu/nu mice, oral gavage
Experimental: Colo205-TCF/LEF-Luciferase (Luc) tumor cells were expanded in complete DMEM cell culture media [DMEM (Life Technologies, product #11960-051) media supplemented with 10% FBS (Hyclone, catalog #SH30071.03), antimycotic/antibiotic (Life Technologies, product #15240-062), and Glutamax (Life Technologies, product #35050-061)] with 1 ug/ml puromycin. After reaching confluency/high density, the loosely attached cells in media were transferred from the flask to 50 ml conical tubes. Tumor cells adhered to plastic were detached with trypsin and combined with cells in the conical tubes. The tumor cells were triturated, counted, and pelleted by centrifugation. Cell pellets were resuspended in 0.9% injectable saline (6×10^7 cells/ml). A 50 ul volume (3×10^6 cells) was injected subcutaneously in the flanks of 4-6 wk old female nu/nu mice (Charles River Laboratories). Approximately 13-16 days after implantation, tumors between 200-500 mm^3 were selected (based on caliper measurements and applying the formula […]) and randomized into groups of n=4. Mice were dosed by oral gavage with compound dissolved in 1:3:5:1 EtOH:DMSO:PEG-400:H2O at a rate of 10 ml/kg or 1:3:5:1 EtOH:DMSO:PEG-400:H2O alone (Vehicle Control). Tumors were collected from mice euthanized by CO2 inhalation and snap frozen in liquid nitrogen. Tumors were stored in a −80 degrees C. freezer until they were processed.
Tumors were thawed on ice and homogenized in cold Lysis Buffer (20 mM Tris-HCl (pH 7.5), 150 mM NaCl, 1 mM Na2EDTA, 1 mM EGTA, 1% Triton, 2.5 mM sodium pyrophosphate, 1 mM beta-glycerophosphate, 1 mM Na3VO4, 1 μg/ml leupeptin, 0.05% SDS) using a closed tissue grinder system (Fisher Scientific, Cat #02-542-09) on ice according to manufacturer's instructions. For 100 mg of tumor, 500 uL of Lysis Buffer was used. Tumor lysate was transferred to a pre-chilled microcentrifuge tube and centrifuged at 10,000×g for 10 minutes at 4 degrees C. Supernatant was transferred to a new pre-chilled microcentrifuge tube and was used immediately for analysis of protein content and luciferase activity.
Protein content of tumor lysate supernatant was determined using the BCA assay (Life Technologies Cat #23225). Luciferase activity of tumor lysate supernatant was determined by addition of Steady-Glo luminescence reagent (Promega, Cat #E2550) according to manufacturer's instructions and measurement on a Pherastar luminescence plate reader (BMG Labtech). Luciferase activity was normalized to protein content.

| Compound | IC50 ([1]; Homo sapiens, COLO 205, 5 h) [µM] | IC50 [1] [µM] | Percent Remaining Activity at 8 hrs after Dosing [2] [%] |
| --- | --- | --- | --- |
| Cc1nc(NC2CN(C(=O)c3ccc(C(F)(F)F)nc3)C2)nc2c1NC(=O)[C@H](C(C)C)N2C [Compound 545, (S)-7-isopropyl-4,8-dimethyl-2-((1-(6-(trifluoromethyl)nicotinoyl)azetidin-3-yl)amino)-7,8-dihydropteridin-6(5H)-one] | 0.3 to 1 |  | 51 |
| Cc1nc(NCc2cnn(Cc3ccc(Cl)nc3)c2)nc2c1N(C)C(=O)[C@H](CCO)N2C [Compound 445, (7S)-2-(((1-((6-chloropyridin-3-yl)methyl)-1H-pyrazol-4-yl)methyl)amino)-7-(2-hydroxyethyl)-4,5,8-trimethyl-7,8-dihydropteridin-6(5H)-one] | 0.3 to 1 |  | 98 |
| Cc1nc(N[C@H]2C[C@@H](Nc3cnc(C#N)cn3)C2)nc2c1NC(=O)[C@H](C(C)C)N2C [Compound 602, 5-((cis-3-(((S)-7-isopropyl-4,8-dimethyl-6-oxo-5,6,7,8-tetrahydropteridin-2-yl)amino)cyclobutyl)amino)pyrazine-2-carbonitrile] | 0.3 to 1 |  | 57 |
| (S)-7-ethyl-2-(((1-((2-isopropyloxazol-5-yl)methyl)-1H-pyrazol-4-yl)methyl)amino)-4,8-dimethyl-7,8-dihydropteridin-6(5H)-one [Compound 513] |  | < 0.3 | 90 |
| Cc1nc(NCc2cnn(Cc3ccc(OC(C)C)nc3)c2)nc2c1NC(=O)[C@H](C)N2C [Compound 135, (7S)-2-(((1-((6-isopropoxypyridin-3-yl)methyl)-1H-pyrazol-4-yl)methyl)amino)-4,7,8-trimethyl-7,8-dihydropteridin-6(5H)-one] | < 0.3 |  | 43 |
| Cc1nc(N[C@H]2C[C@@H](Nc3cnc(C(F)(F)F)cn3)C2)nc2c1NC(=O)[C@H](C)N2C [Compound 578, (S)-4,7,8-trimethyl-2-((cis-3-((5-(trifluoromethyl)pyrazin-2-yl)amino)cyclobutyl)amino)-7,8-dihydropteridin-6(5H)-one] | < 0.3 |  | 47 |
| Cc1nc(N[C@H]2C[C@@H](Nc3cnc(C(F)(F)F)cn3)C2)nc2c1NC(=O)[C@H](C(C)C)N2C [Compound 557, (S)-7-isopropyl-4,8-dimethyl-2-((cis-3-((5-(trifluoromethyl)pyrazin-2-yl)amino)cyclobutyl)amino)-7,8-dihydropteridin-6(5H)-one] | < 0.3 |  | 20 |
| Cc1nc(NCc2cnn(Cc3cnc(C(C)C)o3)c2)nc2c1NC(=O)[C@H](C(C)C)N2C [Compound 517, (S)-7-isopropyl-2-(((1-((2-isopropyloxazol-5-yl)methyl)-1H-pyrazol-4-yl)methyl)amino)-4,8-dimethyl-7,8-dihydropteridin-6(5H)-one] | < 0.3 |  | 93 |
| Cc1nc(NCc2cnn(Cc3ccc(Cl)nc3)c2)nc2c1NC(=O)[C@H](C1CC1)N2C [Compound 434, (7S)-2-(((1-((6-chloropyridin-3-yl)methyl)-1H-pyrazol-4-yl)methyl)amino)-7-cyclopropyl-4,8-dimethyl-7,8-dihydropteridin-6(5H)-one] | < 0.3 |  | 26 |
| Cc1nc(NCc2cnn(Cc3ccc(C(F)F)nc3)c2)nc2c1NC(=O)[C@H](C1CC1)N2C [Compound 501, (S)-7-cyclopropyl-2-(((1-((6-(difluoromethyl)pyridin-3-yl)methyl)-1H-pyrazol-4-yl)methyl)amino)-4,8-dimethyl-7,8-dihydropteridin-6(5H)-one] | < 0.3 |  | 53 |
| COc1c(F)cc(Cn2cc(CNc3nc(C)c4c(n3)N(C)[C@@H](C(C)C)C(=O)N4)cn2)cc1F [Compound 450, (S)-2-(((1-(3,5-difluoro-4-methoxybenzyl)-1H-pyrazol-4-yl)methyl)amino)-7-isopropyl-4,8-dimethyl-7,8-dihydropteridin-6(5H)-one] | < 0.3 |  | 32 |
| Cc1nc(N[C@H]2C[C@@H](Nc3cc(C(F)(F)F)ncn3)C2)nc2c1NC(=O)[C@H](C(C)C)N2C [Compound 528, (S)-7-isopropyl-4,8-dimethyl-2-((cis-3-((6-(trifluoromethyl)pyrimidin-4-yl)amino)cyclobutyl)amino)-7,8-dihydropteridin-6(5H)-one] | < 0.3 |  | 28 |
| Cc1nc(NCc2cnn(Cc3ccnc(C(F)(F)F)c3)c2)nc2c1NC(=O)[C@H](C1CC1)N2C [Compound 455, (S)-7-cyclopropyl-4,8-dimethyl-2-(((1-((2-(trifluoromethyl)pyridin-4-yl)methyl)-1H-pyrazol-4-yl)methyl)amino)-7,8-dihydropteridin-6(5H)-one] | < 0.3 |  | 63 |
| CO[C@H](C)[C@H]1C(=O)Nc2c(C)nc(NCc3cnn(Cc4cc(C(F)(F)F)nn4C)c3)nc2N1C [Compound 656, (S)-7-((R)-1-methoxyethyl)-4,8-dimethyl-2-(((1-((1-methyl-3-(trifluoromethyl)-1H-pyrazol-5-yl)methyl)-1H-pyrazol-4-yl)methyl)amino)-7,8-dihydropteridin-6(511)-one] |  | < 0.3 | 51 |

Further lines, with some results ahead:

| IC50 ([1]; Homo sapiens, COLO 205, 5 h) [µM] | IC50 [1] [µM] | Compound | Percent Remaining Activity at 8 hrs after Dosing [2] [%] |
| --- | --- | --- | --- |
| < 0.3 |  | Cc1nc(NCc2cnn([C@H]3C[C@H]3c3ccc(F)cc3)c2)nc2c1NC(=O)[C@H](C)N2C [Compound 155, (7S)-2-(((1-((1S,2S)-2-(4-fluorophenyl)cyclopropyl)-1H-pyrazol-4-yl)methyl)amino)-4,7,8-trimethyl-7,8-dihydropteridin-6(5H)-one] | 17 |
| < 0.3 |  | Cc1nc(NCc2cnn(Cc3cnc(Cl)s3)c2)nc2c1NC(=O)[C@H](C(C)C)N2C [Compound 491, (S)-2-(((1-((2-chlorothiazol-5-yl)methyl)-1H-pyrazol-4-yl)methyl)amino)-7-isopropyl-4,8-dimethyl-7,8-dihydropteridin-6(5H)-one] | 41 |
| < 0.3 |  | Cc1nc(NCc2cnn(Cc3ccc(C#N)nc3)c2)nc2c1NC(=O)[C@H](C(C)C)N2C [Compound 431, (7S)-5-((4-(((7-isopropyl-4,8-dimethyl-6-oxo-5,6,7,8-tetrahydropteridin-2-yl)amino)methyl)-1H-pyrazol-1-yl)methyl)picolinonitrile] | 29 |
| < 0.3 |  | Cc1nc(NCc2cnn(Cc3ccc(C(F)F)nc3)c2)nc2c1NC(=O)[C@H](C(C)C)N2C [Compound 500, (S)-2-(((1-((6-(difluoromethyl)pyridin-3-yl)methyl)-1H-pyrazol-4-yl)methyl)amino)-7-isopropyl-4,8-dimethyl-7,8-dihydropteridin-6(5H)-one] | 43 |
| < 0.3 |  | Cc1nc(N[C@@H]2CCc3nn(Cc4ccc(C(F)(F)F)nc4)cc32)nc2c1NC(=O)[C@H](C(C)C)N2C [Compound 522, (S)-7-isopropyl-4,8-dimethyl-2-(((R)-2-((6-(trifluoromethyl)pyridin-3-yl)methyl)-2,4,5,6-tetrahydrocyclopenta[c]pyrazol-4-yl)amino)-7,8-dihydropteridin-6(5H)-one] | 91 |
| < 0.3 |  | Cc1nc(NC2CN(C(=O)c3cc(F)c(F)c(F)c3)C2)nc2c1NC(=O)[C@H](C(C)C)N2C [Compound 496, (S)-7-isopropyl-4,8-dimethyl-2-((1-(3,4,5-trifluorobenzoyl)azetidin-3-yl)amino)-7,8-dihydropteridin-6(5H)-one] | 17 |
| < 0.3 |  | CO[C@H](C)[C@H]1C(=O)Nc2c(C)nc(NCc3cnn(Cc4ccc(OC(F)(F)F)nc4)c3)nc2N1C [Compound 565, (S)-7-((R)-1-methoxyethyl)-4,8-dimethyl-2-(((1-((6-(trifluoromethoxy)pyridin-3-yl)methyl)-1H-pyrazol-4-yl)methyl)amino)-7,8-dihydropteridin-6(5H)-one] | 68 |
